Drawing on PubChem BioAssay AID1625 (Sanford-Burnham Center for Chemical Genomics, 2009), this text covers EC50 for 62 compounds.

Activity calls are given as the source filed them.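 How the source made its calls: active means z-score above 3 at 5 µM with at least 500 cells counted in the well; inconclusive means wells under 500 cells, flagged as cytotoxic or low count; inactive means the rest.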

The assay relates to MIN6 insulin promoter-GFP reporter, high-content imaging. Description: up-regulation of insulin promoter-GFP reporter – imaging, high-content screening, mouse beta cells (AID 1625).
What is called EC50 is the concentration giving half of the maximal effect. In the case of `CC1CCCCC1NC(=O)COC(=O)c1c2c(nc3ccccc13)/C(=C/c1ccco1)CC2` (configuration not stated), the EC50 was > 16 µM (inactive).
With `CCOC(=O)CC1C(=O)NCCN1c1nc2ccc(C)cn2c(=O)c1/C=C1\SC(=S)N(CC(C)C)C1=O` (configuration not stated), the EC50 was 6.84 µM.
Under `O=C(OCCN1C(=O)c2cccc3c(N4CCOCC4)ccc(c23)C1=O)c1ccc(Cl)cc1Cl` stands 12.1 µM (inactive); under `Cc1cc(/C=C2\NC(=S)N(C)C2=O)ccc1N1CCCC1`, 8.97 µM.
Under `CC(=O)Nc1sc(/C(C#N)=C\c2cccc(Cl)c2)nc1-c1ccc(C)cc1` stands 8.92 µM; under `CCOC(=O)c1sc2cc([N+](=O)[O-])cc(SCC(C)C)c2c1N`, > 16 µM (inactive); under `O=C1c2cccc3c(O)ccc(c23)C(=O)N1Cc1ccccc1`, 5.65 µM.
The figure for `N#CC(C#N)=C1C=C2C=C(N3CCOCC3)CCC2CC1` (configuration not stated) is 2.56 µM; for `Cc1nn(C)cc1N1C(=O)c2cccc3c(N)ccc(c23)C1=O` it is > 16 µM (inactive); for `CCOC(=O)CC1C(=O)NCCN1c1nc2c(C)cccn2c(=O)c1/C=C1\SC(=S)N(C(C)CC)C1=O` (configuration not stated) it is 7.29 µM.
For the compound `O=C(N=C1SCC(=O)N1c1ccccc1Cl)c1ccccc1`, the EC50 was > 16 µM (inactive).
Regarding `CC(=O)c1cc(NC(=O)c2ccc(Cl)cc2)c(=O)oc1/C=C/N(C)C`, the EC50 is > 16 µM (inactive).
The figure for `CCOC(=O)c1c(-c2ccc(C)cc2)csc1NC(=O)/C(C#N)=C/c1ccc(O)c(OC)c1` is > 16 µM (inactive).
Under `Cc1nnc(NC(=O)c2sc3nc(-c4cccs4)cc(C(F)(F)F)c3c2N)s1` stands 9.04 µM; under `COc1ccc(-c2ccc3c(N)c(C(=O)c4cccc(OC)c4)sc3n2)cc1`, > 16 µM (inactive); under `COc1ccc2c(c1)NC(c1ccc(N(C)C)cc1)c1cccn1-2` (configuration not stated), > 16 µM (inactive).
Under `C/C(=N\Nc1ccc([N+](=O)[O-])cc1)c1cc2ccccc2o1` stands > 16 µM (inactive); under `N#C/C(=C/c1ccc(-c2ccc(S(N)(=O)=O)cc2)o1)c1nc2ccccc2s1`, 10 µM (inactive); under `Oc1ccc(/C=N/Nc2ccnc3cc(Cl)ccc23)c(O)c1`, > 16 µM (inactive).
In the case of `CC(=O)Oc1ccc2c(c1)Oc1cc(OC(C)=O)ccc1C21OC(=O)c2ccccc21`, the concentration giving a half-maximal response (EC50) was 0.439 µM.
For the compound `O=C(C1=C(O)C(=O)N(c2nccs2)C1c1ccccc1)c1cc2ccccc2o1` (configuration not stated), the EC50 is 13.3 µM (inactive).
The figure for `N#C/C(=C\c1ccc(N2CCCCC2)o1)C(N)=O` is 10.8 µM (inactive).
Under `CCN(CC)c1ccc2cc(C(N)=O)/c(=N\NC(=O)c3ccncc3)oc2c1` stands 9.67 µM; under `CCCN1C(=O)S/C(=C/c2ccc(N3CCOCC3)o2)C1=O`, 8.06 µM; under `CCCCN1C(=O)/C(=C/C=C2\SCCN2C)SC1=S`, 9.18 µM.
Under `C=CCSc1nnc(C)c(/C=C/Nc2ccc(Cl)cc2)n1` stands > 16 µM (inactive); under `N#C/C(=C/c1ccc(N2CCCCC2)o1)c1cccc(F)c1`, 8.75 µM.
For `CCN1CC=C2C(C#N)=C(N)C(C#N)(C#N)C(c3cc(Cl)ccc3Cl)C2C1` (configuration not stated), the EC50 was 8.66 µM.
Under `CCCCOc1ccc(-c2cc(C(F)(F)F)c(C#N)c(SCC(=O)O)n2)cc1` stands > 16 µM (inactive).
Turning to `CC(C)(C)C(=O)c1sc2nc(-c3cccs3)cc(C(F)(F)F)c2c1N`, the EC50 was > 16 µM (inactive).
Consider `CCOCCCNc1nc2c(C)cccn2c(=O)c1/C=C1\SC(=S)N(C(C)CC)C1=O` (configuration not stated), for which the EC50 is 4.03 µM.
Under `CN1C(=S)N(c2cccnc2)C(=O)/C1=C\c1ccc(N(C)C)cc1` stands > 16 µM (inactive).
Under `CCOC(=O)Cc1csc(NC(=O)c2sc3nc4c(C)cc(C)cc4cc3c2N)n1` stands > 16 µM (inactive); under `COc1cc(N2CCCC2)c(OC)cc1/C=C1/NC(=S)NC1=O`, 4.73 µM; under `CN1CC=C2C(C#N)=C(N)C(C#N)(C#N)[C@H](c3cccs3)[C@H]2C1`, 11.1 µM (inactive).
Under `Cc1ccc2nc(/C(C#N)=C\c3ccc(N4CCOCC4)o3)[nH]c2c1` stands 3.44 µM.
On to `CCN(CC)C(=O)c1sc2nc(-c3cccs3)cc(-c3cccs3)c2c1N`, for which the EC50 is > 16 µM (inactive).
Under `O=S(=O)(Nc1cc2nc3ccccc3nc2n1Cc1ccccc1)c1ccc(Cl)cc1` stands 7.17 µM.
The figure for `N=c1oc2c3c4c(cc2cc1C(=O)Nc1ccccc1)CCCN4CCC3` is 0.699 µM; for `COC(=O)c1cc(NC(=O)c2ccccc2)c(=O)oc1/C=C/Nc1ccc(Oc2ccccc2)cc1` it is 6.49 µM; for `COc1cccc(/C=N/NC(=O)c2oc3nc(-c4ccccc4)cc(-c4ccco4)c3c2N)c1` it is > 16 µM (inactive).
Under `O=[N+]([O-])c1ccc(N/N=C/c2c[nH]c3ccccc23)cc1` stands 10.8 µM (inactive); under `Cc1cccn2c(=O)c(/C=C3\SC(=S)NC3=O)c(NCCCN3CCOCC3)nc12`, 12.2 µM (inactive); under `O=[N+]([O-])c1ccc(-c2ccc(/C=N/Nc3nc(N4CCCCC4)nc(N4CCCCC4)n3)o2)cc1`, > 16 µM (inactive).
For the compound `N#Cc1c(C(F)(F)F)cc(-c2ccccc2)nc1SCc1nc(N)nc(N2CCOCC2)n1`, the EC50 is 3.73 µM.
Take `N#C/C(=C/c1ccc(N2CCOCC2)o1)C(=O)Nc1ccccc1`: the EC50 is 9.79 µM.
The figure for `CCOc1cc(N(CC)CC)ccc1/C=C(/C#N)c1nc2ccccc2[nH]1` is 4.49 µM; for `Cc1ccc(CN=Cc2[nH]c3ccc(Br)c(Cl)c3c2O)cc1` it is > 16 µM (inactive); for `O=C1/C(=C/c2ccc(N3CCOCC3)o2)SC(=Nc2ccccc2)N1CCc1c[nH]c2ccccc12` it is 0.702 µM.
The figure for `COc1cc([C@@H]2[C@H]3CNCC=C3C(C#N)=C(N)C2(C#N)C#N)ccc1OC(C)C` is > 16 µM (inactive); for `CCOC(=O)/C(C#N)=C/C=C1\C=Cc2ccccc2N1CC` it is > 16 µM (inactive).
Under `O=C1c2cccc3c(O)ccc(c23)C(=O)N1Cc1ccco1` stands 13.7 µM (inactive); under `CN1/C(=C/C=C(C#N)C#N)C=Cc2ccccc21`, > 16 µM (inactive); under `CCOC(=O)CC1C(=O)NCCN1c1nc2ccc(C)cn2c(=O)c1/C=C1\SC(=S)N(C(C)CC)C1=O` (configuration not stated), 0.748 µM.
`O=[N+]([O-])c1ccc(/C=C/C2=NN(c3ccccc3)C(c3ccco3)C2)o1` (configuration not stated): the EC50 is > 16 µM (inactive).
The figure for `CN1/C(=C\C=C(/C#N)C(=O)Nc2ccc(Cl)cc2)C(C)(C)c2ccccc21` is > 16 µM (inactive); for `CCOCCCNc1nc2c(C)cccn2c(=O)c1/C=C1\SC(=S)N(CC(C)C)C1=O` it is > 16 µM (inactive).
Under `CCN(CC)c1ccc(C=C(c2nnnn2-c2ccccc2)c2nnnn2-c2ccccc2)cc1` stands > 16 µM (inactive); under `O=[N+]([O-])c1ccc(N2N=C(c3ccco3)CC2c2ccccc2)cc1` (configuration not stated), > 16 µM (inactive).
With `COc1cc(N2CCCC2)c(OC)cc1/C=C(/C#N)c1cccc(Br)c1`, the concentration for a half-maximal effect (EC50) is 4.79 µM.
The figure for `COc1ccc(N=C2NC(=O)S/C2=C\c2ccc(N(C)C)cc2)cc1` is > 16 µM (inactive); for `CCCNc1c(F)c(F)c2c(C)c3ccccc3nc2c1F` it is 8.02 µM.
